Test system: phytase (extracellular phytase from P. acidilactici SMVDUDB2)
Details: 0.1-1.8 mM sodium phytate, 0.2 M sodium acetate pH 5.5

O=P(O)(O)O[C@H]1[C@H](OP(=O)(O)O)[C@@H](OP(=O)(O)O)[C@H](OP(=O)(O)O)[C@@H](OP(=O)(O)O)[C@H]1OP(=O)(O)O [sodium phytate]
Km: 385 µM
